Results on 62 molecules are retold here after a melting point compilation (Tetko et al.; mined from patent text by program, amines drawn as free bases though some values may be those of a salt).

As a reminder, the melting point is the temperature of the solid-liquid transition.

In the case of `CN(C)CCCNC(=O)[C@@H](Cc1ccc(-c2ccccc2)cc1)NC(=O)CC(C)(C)CC(=O)O`, the melting point lay within 84 to 92 °C. Under `CC(c1oc2ccccc2c(=O)c1-c1ccccc1)n1ncc2c(N)ncnc21` (configuration not stated) stands 226 to 227 °C. In the case of `CCc1nn(-c2ccccc2)nc1/C(C#N)=C(\OC(=O)C(C)(C)C)c1c(C)c(C)nn1C`, the melting point stood at 119 °C.

In turn, `CC(=NO)C(C)(C)NCC(F)(F)CNC(C)(C)C(CCn1ccnc1[N+](=O)[O-])=NO` registered a melting point of 90 to 92 °C. To `N#Cc1c(Cl)[nH]c(Cl)c1Cl` belongs > 300 °C.

For `COc1ccc(CNc2c(C)c(C)c3c(c2C)C(c2ccc(C)cc2)C(C)(C)O3)cc1` (configuration not stated), the melting point was in the range of 97 to 98 °C. To `CCc1oc2ccccc2c1C(=O)N(C)Cc1ccc2c(Br)c(O)ccc2c1` belongs 176 to 178 °C; to `COc1cc(N(Cc2cccc(SC(F)(F)F)c2)C[C@@H](O)C(F)(F)F)cc(OC)c1OC`, 88.9 to 89.1 °C.

As for `Cc1ccc(CNCC2(F)CCN(C(=O)c3ccc(F)c(F)c3)CC2)nc1`, the melting point was 158 °C.

In the case of `Cn1ncc2c(c1=O)SCCNC2C(=O)Cc1ccccc1` (configuration not stated), the melting point turned out to be 133 °C. On to `O=C(Nc1ccc(Cl)cc1)NS(=O)(=O)c1ccc2c(c1)CCC2`, for which the melting point is 169 to 172 °C. To `COC(=O)c1cc(Br)cc([N+](=O)[O-])c1SCc1ccccc1` belongs 65 to 66 °C; to `Cc1[nH]c(=O)ccc1-c1ccc(O)c([N+](=O)[O-])c1`, 260 to 262 °C. The molecule `CCOC(=O)C(C=O)Cc1ccn(Cc2ccccc2)c(=O)c1` (configuration not stated) showed a melting point of 140 to 143 °C. Consider `CN1C(=O)c2c(Oc3ccccc3O)cc3[nH]c4cc(O)ccc4c3c2C1=O`, for which the melting point came to 200 °C.

As to `COc1ccc([C@@H]2Cc3cc(OC)ccc3NC(=O)[C@@H]2O)cc1`, the melting point was in the range of 171 to 173 °C. Under `CCN(O)Cc1nnc2n1-c1ccc(Cl)cc1C(c1ccccc1)=NC2` stands 154 to 157 °C; under `NCCc1c[nH]c2ccc(Cc3nnn(Cc4ccccc4)n3)cc12`, 181 to 183 °C. Under `CCNc1ccc(-c2cc3ccccc3o2)cc1` stands 126 to 128 °C.

Turning to `CCOc1ccc(S(=O)(=O)N2CCNCC2)cc1-c1nc2c(OC)cccc2c(=O)[nH]1`, the melting point was 163 to 165 °C. To `COC1=CC2=CCC3C(CCC4(C)C(C5=NC(OCc6ccccc6)OC5)=CCC34)C2(C)CC1` (configuration not stated) belongs 115 to 125 °C; to `CCC(Oc1c(C)c(F)cc(F)c1F)C1=NCCN1` (configuration not stated), 99 to 101 °C; to `COc1cccc(F)c1-c1ccc(NC(=O)OC(C)(C)C)c([N+](=O)[O-])c1`, 65 to 68 °C.

Consider `CCCCC(=O)c1cn(C(c2ccccc2)(c2ccccc2)c2ccccc2)cn1`, for which the melting point lay within 115 to 118 °C. Under `COC(=O)c1cc(-c2ccccc2)c(=O)n2ncc3ccccc3c12` stands 174 to 175 °C; under `CS(=O)(=O)c1cnc2c(c1)cc(-c1ncco1)n2Cc1ccc(F)cc1`, 200 to 201 °C; under `Oc1ccc2c(c1)CCCC(c1ccccc1)=C2c1ccc(OCCCCSCCCC(F)(F)C(F)(F)F)cc1`, 167 °C. In turn, `Cn1c(=O)n(Cc2ccc3c(c2)OCO3)c(=O)c2cc(C(=O)NCc3ccc4c(c3)OCO4)ccc21` displayed a melting point of 198 °C. To `CCOC(=O)C=Cc1csc(-c2ccc(OC)c(C(C)(C)C)c2)c1` belongs 119 to 120 °C. `CCCC1NS(=O)(=O)N(CCN2CC=C(c3c[nH]c4cc(F)ccc34)CC2)c2ccccc21` (configuration not stated) gave a melting point of 196 to 198 °C.

`O=C(O)c1ccc(C(=O)/C=C/c2ccc(F)c(-c3cccs3)c2)cc1` had a melting point of 242 to 244 °C. `CCn1c(N)c(-c2ncc[nH]2)c(=O)c2ccc(-c3ccc(CC(=O)NCc4ccncc4)nc3)nc21`: the melting point came to 120 °C. To `COc1ccc(N2C(=O)CN(C(C)C)C2=O)c(F)c1` belongs 88 to 90 °C; to `COc1ccc(/C=C/C(=O)/C=C/C(=O)O)c(OC)c1OC`, 125 to 127 °C; to `COc1ccc(C(OCC2(COS(=O)(=O)c3ccc(C)cc3)OC(n3ccc(=O)[nH]c3=O)C(O)C2O)(c2ccccc2)c2ccc(OC)cc2)cc1` (configuration not stated), 104 to 105 °C.

Regarding `CCCCN(c1nc(NCCN)nc(N(CCCC)C2CC(C)(C)NC(C)(C)C2)n1)C1CC(C)(C)NC(C)(C)C1`, the melting point is 140 °C.

`COC(=O)C(Cl)=Cc1cc([N+](=O)[O-])ccc1Cl` displayed a melting point of 108 to 110 °C. `CNC1C(C)CN(c2c(F)c(N)c3c(=O)c(C(=O)O)cn(C4CC4)c3c2OC)CC1C` (configuration not stated) came in with a melting point of 224 to 226 °C. The molecule `O=C(O)c1cnn(-c2cccc(Cl)c2)c1Cl` had a melting point of 209 to 211 °C. `CC(C)(C)C1=CC(O)(C(F)(F)F)C(=O)C(C(C)(C)C)=C1` (configuration not stated) gave a melting point of 58 to 61 °C. In turn, `CCCC(CCC)CCCC(N)=O` displayed a melting point of 44 °C. To `O=C(c1ccc(OCCn2ccnc2)cc1)N1CCOCC1` belongs 109 to 111 °C; to `COCCc1sc2ncnc(N)c2c1-c1ccc(NC(=O)Nc2ccccc2C)cc1`, 217 to 219 °C. Turning to `CCC(C)(C)Nc1c(NCc2c(C)cccc2C)c(=O)c1=O`, the melting point was 227 to 231 °C. On to `Cc1cc(Cl)c2[nH]ncc2n1`, for which the melting point was found to be 218 °C. To `CC(=O)OC1CSC(Oc2cc(-c3cncnc3)cnc2Cl)C(OC(C)=O)C1OC(C)=O` (configuration not stated) belongs 72 to 90 °C; to `CS(=O)(=O)N(CCc1ccccn1)CC(O)(Cn1cncn1)c1ccc(Cl)cc1Cl` (configuration not stated), 151 to 153 °C; to `CCCN(CCC)Sc1nc2ccccc2s1`, 57 to 59 °C. For `Cc1cc(NC(=O)OC(C)(C)C)c(N)cc1-c1ccc(F)cc1`, the melting point was 112 °C.

Turning to `COc1ccc(-c2[nH]nc3c2C(=O)c2c(NC(=O)NN(C)C)cccc2-3)cc1`, the melting point is > 300 °C. The molecule `CCCc1c(OCC(O)COc2cccc([N+](=O)[O-])c2C#N)ccc(C(C)=O)c1O` (configuration not stated) showed a melting point of 117 to 119 °C. Regarding `COc1ccc(-c2cc(C#N)nnc2-c2ccc(OC)cc2)cc1`, the melting point fell in the range of 113 to 115 °C. As for `Cc1cccc(-c2[nH]c(C(C)C)nc2-c2ccc(F)c(-c3ccc(C(=O)NC4CCOCC4)cc3)c2)n1`, the melting point lay in the range of 130 to 132 °C.

With `COC(=O)[C@H](Cc1ccc([N+](=O)[O-])cc1)NC(=O)OC(C)(C)C`, the melting point fell in the range of 95 to 96 °C. To `CCOC(=O)C(=Cc1cccc2ccccc12)c1csc(N)n1` belongs 155 to 157 °C; to `FC(F)Sc1nnc(-c2cccs2)s1`, 63 to 64 °C; to `CSc1nccc(-n2nnc3ccccc32)n1`, 180 to 182 °C. On to `CSc1nn(-c2c(Cl)cc(C(F)(F)F)cc2Cl)c2ncnc(-c3ccccc3Cl)c12`, for which the melting point was in the range of 156 to 158 °C. To `CCOc1ccc(O)c(C(C)(C)C)c1` belongs 96 to 98 °C; to `COC(=O)/C=C/c1ccc(OC2Cc3ccccc3C2)cc1`, 115 to 116 °C. The molecule `CCOCc1nc2c(N)nc3ccc(O)cc3c2n1CCCCN(C(N)=O)c1ccccc1` came in with a melting point of 218 to 221 °C. To `CS(=O)c1ncc2ccc(=O)[nH]c2n1` (configuration not stated) belongs 237 to 242 °C.
